Measured values taken from ChEMBL document CHEMBL1156278, “Novel benzothiophene H1-antihistamines for the treatment of insomnia” (Bioorg Med Chem Lett, 2010).
Calls of active or inactive are those of the source. The rule behind the calls is not given here.

Tests used:
[1] = Activity at P-glycoprotein
Rattus norvegicus [2] = assay: Increase in NREM sleep in CD IGS rat model of insomnia at 30 mg/kg, po after 4 hrs by EEG/EMG study relative to control; assay type: functional
Rattus norvegicus [3] = assay: Effect on sleep-awake pattern in CD IGS rat model of insomnia assessed as longest 3 REM bouts at 30 mg/kg, po after 6 hrs by EEG/EMG study relative to control; assay type: functional
Rattus norvegicus [4] = assay: Increase in NREM sleep in CD IGS rat model of insomnia at 60 mg/kg, po after 4 hrs by EEG/EMG study relative to control; assay type: functional
[5] = Bioavailability in human at 0.1 mg/kg by microdose study; assay type: ADME, organism-based; details: in vivo
Rattus norvegicus [6] = assay: Effect on sleep-awake pattern in CD IGS rat model of insomnia assessed as latency to NREM sleep at 30 mg/kg, po by EEG/EMG study relative to control; assay type: functional
[7] = Drug level in rat brain at 30 mg/kg, po after 4 hrs; assay type: ADME, organism-based; parameters: dose 30 mg/kg, route oral; details: read-out: Drug uptake
[8] = biological target: T1, Muscarinic acetylcholine receptor M1 (Homo sapiens, UniProt P11229); assay: Displacement of [3H]N-methylscopolamine from human muscarinic M1 receptor expressed in CHO Flp-In cells after 90 mins by scintillation counting; assay type: cell-based
T1 sequence (P11229 whole entry): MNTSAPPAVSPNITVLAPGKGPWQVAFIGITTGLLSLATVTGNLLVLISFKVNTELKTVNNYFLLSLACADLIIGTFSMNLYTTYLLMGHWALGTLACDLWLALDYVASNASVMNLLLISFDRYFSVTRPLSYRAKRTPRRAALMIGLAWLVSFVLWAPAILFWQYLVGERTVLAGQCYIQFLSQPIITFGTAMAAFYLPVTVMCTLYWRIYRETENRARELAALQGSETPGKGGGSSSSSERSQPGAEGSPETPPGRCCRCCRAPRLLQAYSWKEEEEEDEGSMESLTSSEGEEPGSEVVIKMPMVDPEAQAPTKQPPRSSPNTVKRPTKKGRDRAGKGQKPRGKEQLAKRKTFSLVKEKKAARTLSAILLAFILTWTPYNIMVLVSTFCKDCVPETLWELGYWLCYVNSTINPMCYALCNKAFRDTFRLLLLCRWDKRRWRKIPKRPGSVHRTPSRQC

Rattus norvegicus [9] = assay: Effect on sleep-awake pattern in CD IGS rat model of insomnia assessed as latency to NREM sleep at 60 mg/kg, po by EEG/EMG study relative to control; assay type: functional
Rattus norvegicus [10] = assay: Increase in REM sleep in CD IGS rat model of insomnia at 60 mg/kg, po after 4 hrs by EEG/EMG study relative to control; assay type: functional
Rattus norvegicus [11] = assay: Effect on sleep-awake pattern in CD IGS rat model of insomnia assessed as longest 3 NREM bouts at 60 mg/kg, po after 6 hrs by EEG/EMG study relative to control; assay type: functional
Rattus norvegicus [12] = assay: Effect on sleep-awake pattern in CD IGS rat model of insomnia assessed as latency to REM sleep at 30 mg/kg, po by EEG/EMG study relative to control; assay type: functional
[13] = AUC (0 to t) in human at 0.1 mg/kg, po by microdose study; assay type: ADME, organism-based; parameters: dose 0.1 mg/kg, route oral; details: plasma
[14] = Systemic clearance in human at 0.1 mg/kg, iv by microdose study; assay type: ADME, organism-based; parameters: dose 0.1 mg/kg, route intravenous; details: in vivo
Rattus norvegicus [15] = assay: Effect on sleep-awake pattern in CD IGS rat model of insomnia assessed as latency to REM sleep at 60 mg/kg, po by EEG/EMG study relative to control; assay type: functional
[16] = Half life in human at 0.1 mg/kg by microdose study; assay type: ADME, organism-based; parameters: dose 0.1 mg/kg; details: in vivo
Rattus norvegicus [17] = assay: Increase in REM sleep in CD IGS rat model of insomnia at 30 mg/kg, po after 4 hrs by EEG/EMG study relative to control; assay type: functional
Histamine H1 receptor = Histamine H1 receptor (Homo sapiens, UniProt P35367); assay: Displacement of [3H]pyrilamine from human histamine H1 receptor expressed in CHO Flp-In cells after 90 mins by scintillation counting; assay type: cell-based
Sequence of Histamine H1 receptor (P35367 whole entry): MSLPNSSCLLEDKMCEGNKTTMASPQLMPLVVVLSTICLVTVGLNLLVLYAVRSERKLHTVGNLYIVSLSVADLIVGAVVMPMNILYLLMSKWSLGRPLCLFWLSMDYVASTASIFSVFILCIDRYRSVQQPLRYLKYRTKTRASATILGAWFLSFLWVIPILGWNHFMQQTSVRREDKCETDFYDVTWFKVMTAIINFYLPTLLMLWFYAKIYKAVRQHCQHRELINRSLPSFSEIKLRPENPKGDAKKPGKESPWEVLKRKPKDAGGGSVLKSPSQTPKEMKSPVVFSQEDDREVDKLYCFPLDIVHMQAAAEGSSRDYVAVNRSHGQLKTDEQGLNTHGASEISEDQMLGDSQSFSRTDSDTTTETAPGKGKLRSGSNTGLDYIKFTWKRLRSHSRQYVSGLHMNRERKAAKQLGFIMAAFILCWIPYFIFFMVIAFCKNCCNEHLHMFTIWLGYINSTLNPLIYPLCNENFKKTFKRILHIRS

Rattus norvegicus [18] = assay: Effect on sleep-awake pattern in CD IGS rat model of insomnia assessed as longest 3 NREM bouts at 30 mg/kg, po after 6 hrs by EEG/EMG study relative to control; assay type: functional
[19] = Apparent permeability across human Caco-2 cells; assay type: ADME, cell-based
Rattus norvegicus [20] = assay: Effect on sleep-awake pattern in CD IGS rat model of insomnia assessed as longest 3 REM bouts at 60 mg/kg, po after 6 hrs by EEG/EMG study relative to control; assay type: functional
[21] = Ratio of drug level in rat brain to plasma at 30 mg/kg, po after 4 hrs; assay type: ADME, organism-based; parameters: dose 30 mg/kg, route oral
[22] = Drug level in rat plasma at 30 mg/kg, po after 4 hrs; assay type: ADME, organism-based; parameters: dose 30 mg/kg, route oral
[23] = Volume of distribution at steady state in human at 0.1 mg/kg by microdose study; assay type: ADME, organism-based; parameters: dose 0.1 mg/kg; details: in vivo, read-out: Vdss
Cytochrome P450 2D6 = Cytochrome P450 2D6 (Homo sapiens, UniProt P10635); assay: Inhibition of recombinant CYP2D6 after 30 mins by fluorescence assay
Sequence of Cytochrome P450 2D6 (P10635 whole entry): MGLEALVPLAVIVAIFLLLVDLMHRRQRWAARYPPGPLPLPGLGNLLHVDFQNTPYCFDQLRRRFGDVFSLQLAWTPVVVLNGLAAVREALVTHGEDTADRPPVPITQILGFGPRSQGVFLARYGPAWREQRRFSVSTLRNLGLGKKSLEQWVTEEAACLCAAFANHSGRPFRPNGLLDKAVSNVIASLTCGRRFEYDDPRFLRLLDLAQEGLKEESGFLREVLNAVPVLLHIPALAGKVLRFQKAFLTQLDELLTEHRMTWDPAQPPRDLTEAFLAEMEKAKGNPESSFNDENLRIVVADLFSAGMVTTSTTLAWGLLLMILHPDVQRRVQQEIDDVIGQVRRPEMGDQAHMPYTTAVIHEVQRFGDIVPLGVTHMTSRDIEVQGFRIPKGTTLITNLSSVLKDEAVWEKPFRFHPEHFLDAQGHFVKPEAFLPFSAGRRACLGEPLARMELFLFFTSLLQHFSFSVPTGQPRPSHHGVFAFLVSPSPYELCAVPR

Cytochrome P450 3A4 = Cytochrome P450 3A4 (Homo sapiens, UniProt P08684); assay: Inhibition of recombinant CYP3A4 after 30 mins by fluorescence assay
Sequence of Cytochrome P450 3A4 (P08684 whole entry): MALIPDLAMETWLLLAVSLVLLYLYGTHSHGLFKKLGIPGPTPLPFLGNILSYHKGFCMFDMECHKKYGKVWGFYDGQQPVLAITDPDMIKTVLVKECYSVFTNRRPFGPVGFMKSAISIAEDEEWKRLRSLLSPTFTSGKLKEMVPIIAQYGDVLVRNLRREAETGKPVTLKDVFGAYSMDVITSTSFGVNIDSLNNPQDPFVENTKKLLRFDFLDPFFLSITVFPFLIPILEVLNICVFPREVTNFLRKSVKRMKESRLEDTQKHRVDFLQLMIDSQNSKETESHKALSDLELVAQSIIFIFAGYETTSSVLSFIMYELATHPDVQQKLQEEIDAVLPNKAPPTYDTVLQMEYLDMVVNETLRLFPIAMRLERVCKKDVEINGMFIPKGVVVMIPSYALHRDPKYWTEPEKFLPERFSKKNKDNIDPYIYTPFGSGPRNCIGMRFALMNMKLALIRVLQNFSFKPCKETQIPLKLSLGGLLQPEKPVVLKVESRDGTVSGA

[24] = biological target: T2, Voltage-gated inwardly rectifying potassium channel KCNH2 (Homo sapiens, UniProt Q12809); assay: Displacement of [3H]Dofetilide from human ERG
T2 sequence (Q12809 whole entry): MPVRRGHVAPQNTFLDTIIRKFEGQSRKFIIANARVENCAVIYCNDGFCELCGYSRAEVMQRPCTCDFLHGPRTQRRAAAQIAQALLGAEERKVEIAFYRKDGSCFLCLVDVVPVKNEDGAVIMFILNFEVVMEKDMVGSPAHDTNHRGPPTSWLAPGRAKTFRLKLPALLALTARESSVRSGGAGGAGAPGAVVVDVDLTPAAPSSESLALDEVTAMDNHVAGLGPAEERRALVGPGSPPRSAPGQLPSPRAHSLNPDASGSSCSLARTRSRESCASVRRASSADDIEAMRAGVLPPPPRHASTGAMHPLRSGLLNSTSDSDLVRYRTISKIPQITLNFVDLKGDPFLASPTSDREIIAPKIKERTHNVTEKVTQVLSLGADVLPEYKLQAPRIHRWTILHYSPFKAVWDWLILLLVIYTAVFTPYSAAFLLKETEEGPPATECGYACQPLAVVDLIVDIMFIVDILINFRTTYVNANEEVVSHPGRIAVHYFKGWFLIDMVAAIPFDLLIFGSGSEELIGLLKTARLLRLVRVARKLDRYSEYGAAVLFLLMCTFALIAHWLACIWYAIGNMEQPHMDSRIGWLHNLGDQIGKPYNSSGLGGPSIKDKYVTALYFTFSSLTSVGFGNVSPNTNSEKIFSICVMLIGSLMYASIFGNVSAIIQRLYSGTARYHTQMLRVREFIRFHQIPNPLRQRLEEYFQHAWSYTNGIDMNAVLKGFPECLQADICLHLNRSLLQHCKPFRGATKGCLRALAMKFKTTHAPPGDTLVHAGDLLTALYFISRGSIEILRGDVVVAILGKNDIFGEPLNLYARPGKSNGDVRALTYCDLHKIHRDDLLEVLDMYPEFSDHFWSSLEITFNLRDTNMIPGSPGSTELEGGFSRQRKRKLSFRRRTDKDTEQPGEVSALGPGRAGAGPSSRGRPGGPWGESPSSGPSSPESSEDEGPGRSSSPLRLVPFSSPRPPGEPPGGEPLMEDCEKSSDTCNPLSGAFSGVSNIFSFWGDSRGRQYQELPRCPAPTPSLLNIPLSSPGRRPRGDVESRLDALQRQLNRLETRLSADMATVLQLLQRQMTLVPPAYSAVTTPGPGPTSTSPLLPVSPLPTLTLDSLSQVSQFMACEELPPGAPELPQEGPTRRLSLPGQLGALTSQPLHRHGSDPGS

[25] = biological target: T2, Voltage-gated inwardly rectifying potassium channel KCNH2; assay: Inhibition of human ERG expressed in HEK cells assessed as blockade of potassium tail current by standard patch clamp analysis
Caco-2 = assay: Ratio of permeability from apical to basolateral side over basolateral to apical side in human Caco-2 cells

Ki ([8]; read-out: Ki) [nM] | Ki (Histamine H1 receptor; read-out: Ki) [nM] | IC50 (Cytochrome P450 2D6) [nM] | IC50 (Cytochrome P450 3A4) [nM] | Structure (SMILES) | Activity [1] | concentration at 4 h [7] [ng/g] | Papp [19] [×10⁻⁶ cm/s] | concentration at 4 h [22] [ng/mL] | Ki [24] [nM] | IC50 [25] [nM] | further results
5600 | – | 850 | 2800 | CC(c1ccncc1)c1c(CCN(C)C)sc2ccccc12 (racemic) | – | – | – | – | 1800 | – | Ki (Histamine H1 receptor): 23 nM
> 10000 | 2.9 | 9600 | > 10000 | COc1ncccc1[C@@H](C)c1c(CCN(C)C)sc2ccccc12 | inactive | 347 | > 21.7 | 37.5 | > 5000 | 1800 | Activity (Rattus norvegicus [2]): 33.1%; Activity (Rattus norvegicus [3]): 2.3 min; Activity (Rattus norvegicus [4]): 28.3%; Activity (Rattus norvegicus [6]): 37 min; Activity (Rattus norvegicus [9]): 49 min; Ratio (Caco-2): > 0.7; Activity (Rattus norvegicus [10]): 6.8%; Activity (Rattus norvegicus [11]): 6.7 min; Activity (Rattus norvegicus [12]): 56 min; Activity (Rattus norvegicus [15]): 72 min; Activity (Rattus norvegicus [17]): 7%; Activity (Rattus norvegicus [18]): 7 min; Activity (Rattus norvegicus [20]): 2.3 min; Kp at 4 h ([21]; read-out: Ratio): 9
> 10000 | 69 | – | > 10000 | Cc1ccc(C(C)c2c(CCN(C)C)sc3ccccc23)cn1 (racemic) | – | – | – | – | > 5000 | – | –
– | 4 | – | > 10000 | C[C@@H](c1ccccn1)c1c(CCN(C)C)sc2ccccc12 | inactive | 23 | > 21.7 | 2.8 | > 5000 | 1400 | bioavailability [5]: 47%; Ki [8]: 5300 nM; Ratio (Caco-2): > 0.7; AUC(0-t) [13]: 2.78 ng·h/mL; clearance [14]: 6.2 mL/min/kg; half-life [16]: 6.8 h; Kp at 4 h ([21]; read-out: Ratio): 8
– | 122 | – | 5200 | CC(c1c(CCN(C)C)sc2ccccc12)n1ccnc1 (racemic) | – | – | – | – | > 5000 | – | –
> 10000 | 120 | – | > 10000 | COc1ccc(C(C)c2c(CCN(C)C)sc3ccccc23)cn1 (racemic) | – | – | – | – | > 5000 | – | –
2200 | 2.7 | 4000 | > 10000 | C[C@@H](c1ncccc1F)c1c(CCN(C)C)sc2ccccc12 | – | – | – | – | > 5000 | 330 | –
4760 | 4.6 | – | > 10000 | C[C@@H](c1cscn1)c1c(CCN(C)C)sc2ccccc12 | – | – | – | – | – | – | –
5800 | – | 2700 | > 10000 | C[C@@H](c1ccccn1)c1c(CCN2CCCC2)sc2ccccc12 | – | – | – | – | 1100 | – | Ki (Histamine H1 receptor): 6.1 nM
> 10000 | 3.9 | > 10000 | > 10000 | C[C@@H](c1ccccn1)c1c(CCN2CCC2)sc2ccccc12 | – | – | – | – | 4200 | 730 | –
> 10000 | 5 | 9500 | > 10000 | COc1cccnc1[C@H](C)c1c(CCN(C)C)sc2ccccc12 | – | – | – | – | > 5000 | 3000 | –

Structure (SMILES) | Ki ([8]; read-out: Ki) [nM] | Ki (Histamine H1 receptor; read-out: Ki) [nM] | IC50 (Cytochrome P450 2D6) [nM] | IC50 (Cytochrome P450 3A4) [nM] | Activity [1] | concentration at 4 h [7] [ng/g] | Papp [19] [×10⁻⁶ cm/s] | concentration at 4 h [22] [ng/mL] | Ki [24] [nM] | IC50 [25] [nM] | further results
C[C@H](c1cccnc1F)c1c(CCN(C)C)sc2ccccc12 | > 10000 | 1.7 | – | – | inactive | 83 | > 21.7 | 3 | – | – | Activity (Rattus norvegicus [2]): 27.4%; Activity (Rattus norvegicus [3]): 2.1 min; Activity (Rattus norvegicus [4]): 32%; bioavailability [5]: 23%; Activity (Rattus norvegicus [6]): 33 min; Activity (Rattus norvegicus [9]): 45 min; Activity (Rattus norvegicus [10]): 6.6%; Activity (Rattus norvegicus [11]): 6.7 min; Activity (Rattus norvegicus [12]): 49 min; AUC(0-t) [13]: 0.64 ng·h/mL; clearance [14]: 12.1 mL/min/kg; Activity (Rattus norvegicus [15]): 64 min; half-life [16]: 13 h; Activity (Rattus norvegicus [17]): 6.4%; Activity (Rattus norvegicus [18]): 5.8 min; Activity (Rattus norvegicus [20]): 2.2 min; Kp at 4 h ([21]; read-out: Ratio): 26; Vd [23]: 5.6 L/kg
C[C@H](c1c(CCN(C)C)sc2ccccc12)n1cccn1 | > 10000 | 4.4 | – | > 10000 | inactive | 11 | > 21.7 | 0.6 | > 5000 | 2000 | Ratio (Caco-2): > 0.7; Kp at 4 h ([21]; read-out: BPR): 20
